From patent US7008953B2, “3, 5 Disubstituted indazole compounds, pharmaceutical compositions, and methods for mediating or inhibiting cell proliferation” (Agouron Pharmaceuticals, Inc., priority 2003, dated 2006)
Values belong to the molecule of their own block, whether it stands above or below them.

Legend:
Assay type in all cases: biochemical
[1] = biological target: stress-activated protein kinase 2a (SAPK-2A or p38) (Homo sapiens, UniProt Q16539); experiment: Panel of protein kinases: SAPK-2A; details: method of Davies et al.
stress-activated protein kinase 2a (SAPK-2A or p38), sequence (Q16539 whole entry, species assumed): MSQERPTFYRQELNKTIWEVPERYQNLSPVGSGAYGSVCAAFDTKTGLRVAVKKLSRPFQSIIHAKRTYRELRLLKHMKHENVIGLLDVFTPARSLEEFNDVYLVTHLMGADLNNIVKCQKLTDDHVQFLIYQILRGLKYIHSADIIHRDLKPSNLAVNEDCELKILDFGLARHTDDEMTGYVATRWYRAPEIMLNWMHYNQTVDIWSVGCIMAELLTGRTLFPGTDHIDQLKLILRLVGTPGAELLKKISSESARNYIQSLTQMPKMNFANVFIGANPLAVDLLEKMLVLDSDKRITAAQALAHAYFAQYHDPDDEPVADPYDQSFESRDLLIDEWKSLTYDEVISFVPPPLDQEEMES
Description: (§1) The compounds of the present invention were screened against a large panel of protein kinase to determine inhibition activity for CDK as against a variety of protein kinases. The assay was conducted using methods and materials described by Davies, S et al. Specificity and Mechanism of Action of Some Commonly Used Protein Kinase Inhibitors, Biochem J. 351, 95–105 (2000), the contents of which are herein incorporated by reference. The compounds were screened against a panel of protein kinases which include AMP-activiated protein kinase (AMPK), checkpoint kinase (CHK1), casein kinases 1 and 2 (CK1 and CK2), cytoplasmic tyrosine kinase (CSK), dual serine/threonine/tyrosine kinase (DYRK1A), glycogen synthase kinase 3 (GSK3B), c-Jun N-terminal kinase (JNK), lymphocyte kinase (LCK), mitogen-activated protein kinases 2, K-1a, K2 (MAPK2, MAPKAP-K1a, and MAPKAP-K2), MAPK kinase (MKK1, also called MEK), mitogen and stress-activated protein kinase 1 (MSK1), never-in-mitosis kinase 6 (NEK6), p70 ribosomal protein S6 kinase (P70s6K1), 3-phosphoinositide-dependent protein kinase 1 (PDK1), phosphorylase kinase (PHK), protein kinase A (PKA), protein kinase B (PKB, also called Akt), protein kinase C (PKCa), p38-regulated/activated kinase (PRAK), Rho-dependent protein kinase (ROCK-II), stress-activated protein kinase 2a, 2b, 3 and 4 (SAPK-2A or p38, SAPK-2b or p38β2, SAPK3 or p38γ, SAPK4 or p38δ, respectively), and serum- and glucocorticoid-induced kinase (SGK). Compound activity was grouped into categories of weak (<50%), moderate (50–75%) and strong inhibition (>75%).

[2] = system: p70 ribosomal protein S6 kinase (P70s6K1); experiment: Panel of protein kinases: P70s6K1; details: method of Davies et al.
Description: as §1

[3] = biological target: T1, CDK2/Cyclin A (Homo sapiens, UniProt P24941); experiment: Inhibition of CDK2/Cyclin A retinoblastoma kinase activity (apparent Ki); details: Rb fragment substrate, 25 μM ATP
T1 construct: made in house; host or cells: CDK2: insect cells (baculovirus); cyclin A: E. coli
Description: Cyclin-dependent kinase activity was measured by quantifying the enzyme-catalyzed, time-dependent incorporation of radioactive phosphate from [^32P]ATP or [^33P]ATP into a protein substrate. Unless noted otherwise, assays were performed in 96-well plates in a total volume of 50 μL, in the presence of 10 mM HEPES (N-[2-hydroxyethyl]piperazine-N′-[2-ethanesulfonic acid]) (pH 7.4), 10 mM MgCl2, 25 μM adenosine triphosphate (ATP), 1 mg/mL ovalbumin, 5 μg/mL leupeptin, 1 mM dithiothreitol, 10 mM beta-glycerophosphate, 0.1 mM sodium vanadate, 1 mM sodium fluoride, 2.5 mM ethylene glycol-bis(β-aminoethyl ethKer)-N,N,N′N′-tetraacetic acid (EGTA), 2% (v/v) dimethylsulfoxide, and 0.03–0.4 μCi [^32/33P]ATP per reaction. Reactions were initiated with enzyme, incubated at 30° C., and terminated after 20 minutes by the addition of ethylenediaminetetraacetic acid (EDTA) to 250 mM. The phosphorylated substrate was then captured on a nitrocellulose or phosphocellulose membrane using a 96-well filtration manifold, and unincorporated radioactivity was removed by repeated washing with 0.85% phosphoric acid. Radioactivity was quantified by exposing the dried membranes to a phosphorimager.
Apparent Ki values were measured by assaying enzyme activity in the presence of different inhibitor compound concentrations and subtracting the background radioactivity measured in the absence of enzyme. Inhibition data were fit to an equation for competitive inhibition using Kaleidagraph (Synergy Software), or were fit to an equation for competitive tight-binding inhibition using the software KineTic (BioKin, Ltd.).
CDK2 was purified using published methodology (Rosenblatt et al., “Purification and Crystallization of Human Cyclin-dependent Kinase 2,” J. Mol. Biol., vol. 230, 1993, pp. 1317–1319) from insect cells that had been infected with a baculovirus expression vector. […] A complex of CDK2 and proteolyzed cyclin A was prepared and purified by gel filtration. The substrate for this assay was the same Rb substrate fragment used for the CDK4 assays, and the methodology of the CDK2/cyclin A and the CDK4/cyclin D3 assays was essentially the same, except that CDK2 was present at 150 nM or 5 nM. Ki values were measured as described above.

[4] = system: AMP-activiated protein kinase (AMPK); experiment: Panel of protein kinases: AMPK; details: method of Davies et al.
Description: as §1

[5] = system: casein kinase 2 (CK2); experiment: Panel of protein kinases: CK2; details: method of Davies et al.
Description: as §1

[6] = biological target: T2, p38-regulated/activated kinase (PRAK) (Homo sapiens, UniProt Q8IW41); experiment: Panel of protein kinases: PRAK; details: method of Davies et al.
T2 sequence (Q8IW41 1-473): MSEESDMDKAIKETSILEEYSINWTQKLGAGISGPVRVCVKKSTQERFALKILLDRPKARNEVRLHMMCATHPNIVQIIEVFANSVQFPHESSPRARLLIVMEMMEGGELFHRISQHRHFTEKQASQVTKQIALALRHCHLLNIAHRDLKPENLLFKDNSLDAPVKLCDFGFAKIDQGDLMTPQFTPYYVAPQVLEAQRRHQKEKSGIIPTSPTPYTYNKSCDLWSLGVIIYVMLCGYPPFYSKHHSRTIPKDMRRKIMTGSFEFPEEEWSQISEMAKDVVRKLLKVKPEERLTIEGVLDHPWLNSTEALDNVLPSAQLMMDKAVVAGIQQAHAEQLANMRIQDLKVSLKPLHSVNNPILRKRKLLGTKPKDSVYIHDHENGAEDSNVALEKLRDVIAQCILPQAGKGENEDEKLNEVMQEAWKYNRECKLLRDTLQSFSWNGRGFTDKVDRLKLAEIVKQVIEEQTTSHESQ
Description: as §1

[7] = biological target: stress-activated protein kinase 2b (SAPK-2b or p38β2) (Homo sapiens, UniProt Q15759); experiment: Panel of protein kinases: SAPK-2b; details: method of Davies et al.
stress-activated protein kinase 2b (SAPK-2b or p38β2), sequence (Q15759 whole entry): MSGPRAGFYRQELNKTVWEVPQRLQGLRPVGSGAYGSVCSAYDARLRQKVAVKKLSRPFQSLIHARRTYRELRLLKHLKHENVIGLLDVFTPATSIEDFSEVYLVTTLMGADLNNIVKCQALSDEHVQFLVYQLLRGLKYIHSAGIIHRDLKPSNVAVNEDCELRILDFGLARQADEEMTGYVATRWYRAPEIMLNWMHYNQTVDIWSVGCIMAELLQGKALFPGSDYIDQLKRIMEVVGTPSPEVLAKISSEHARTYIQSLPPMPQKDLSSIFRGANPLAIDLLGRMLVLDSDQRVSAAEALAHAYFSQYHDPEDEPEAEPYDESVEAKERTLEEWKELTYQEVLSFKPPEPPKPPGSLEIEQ
Description: as §1

[8] = system: Rho-dependent protein kinase (ROCK-II); experiment: Panel of protein kinases: ROCK-II; details: method of Davies et al.
Description: as §1

[9] = system: casein kinase 1 (CK1); experiment: Panel of protein kinases: CK1; details: method of Davies et al.
Description: as §1

SMILES: CCNCc1cncc(-c2ccc3[nH]nc(-c4nc5c(C(=O)NC)cccc5[nH]4)c3c2)c1C [B]
Kinase SAPK-2A inhibition [1]: − (Weak inhibition <50%)
Kinase P70s6K1 inhibition [2]: + (Moderate inhibition 50–75%)
Ki [3]: 0.25 nM
Kinase AMPK inhibition [4]: ++ (Strong inhibition >75%)
Kinase CK2 inhibition [5]: − (Weak inhibition <50%)
Kinase PRAK inhibition [6]: + (Moderate inhibition 50–75%)
Kinase SAPK-2b inhibition [7]: − (Weak inhibition <50%)
Kinase ROCK-II inhibition [8]: + (Moderate inhibition 50–75%)
Kinase CK1 inhibition [9]: − (Weak inhibition <50%)

Kinase SAPK-2A inhibition [1]: − (Weak inhibition <50%)
Ki [3]: 0.47 nM
Kinase PRAK inhibition [6]: − (Weak inhibition <50%)
Kinase SAPK-2b inhibition [7]: − (Weak inhibition <50%)
SMILES: CCNCc1cncc(-c2ccc3[nH]nc(-c4nc5cc(F)ccc5[nH]4)c3c2)c1C [Example 2, Ethyl-{5-[3-(5-fluoro-1H-benzoimidazol-2-yl)-1H-indazol-5-yl]-4-methyl-pyridin-3-ylmethyl}-amine]

SMILES: CCNCc1cncc(-c2ccc3[nH]nc(-c4nc5c(SC)cccc5[nH]4)c3c2)c1C [C]
Kinase SAPK-2A inhibition [1]: − (Weak inhibition <50%)
Kinase P70s6K1 inhibition [2]: − (Weak inhibition <50%)
Ki [3]: 0.8 nM
Kinase AMPK inhibition [4]: ++ (Strong inhibition >75%)
Kinase CK2 inhibition [5]: − (Weak inhibition <50%)
Kinase PRAK inhibition [6]: ++ (Strong inhibition >75%)
Kinase SAPK-2b inhibition [7]: − (Weak inhibition <50%)
Kinase ROCK-II inhibition [8]: + (Moderate inhibition 50–75%)
Kinase CK1 inhibition [9]: − (Weak inhibition <50%)

SMILES: CCNCc1cncc(-c2ccc3[nH]nc(-c4nc5c(F)cc(F)cc5[nH]4)c3c2)c1C [Example 1, {5-[3-(4,6-Difluoro-1H-benzoimidazol-2-yl)-1H-indazol-5-yl]-4-methyl-pyridin-3-ylmethyl}-ethyl-amine]
Kinase SAPK-2A inhibition [1]: − (Weak inhibition <50%)
Kinase P70s6K1 inhibition [2]: − (Weak inhibition <50%)
Ki [3]: 0.78 nM
Kinase AMPK inhibition [4]: ++ (Strong inhibition >75%)
Kinase CK2 inhibition [5]: − (Weak inhibition <50%)
Kinase PRAK inhibition [6]: − (Weak inhibition <50%)
Kinase SAPK-2b inhibition [7]: − (Weak inhibition <50%)
Kinase ROCK-II inhibition [8]: − (Weak inhibition <50%)
Kinase CK1 inhibition [9]: − (Weak inhibition <50%)

SMILES: CCNCc1cncc(-c2ccc3[nH]nc(-c4nc5ccccc5[nH]4)c3c2)c1C [A]
Kinase SAPK-2A inhibition [1]: − (Weak inhibition <50%)
Kinase P70s6K1 inhibition [2]: + (Moderate inhibition 50–75%)
Ki [3]: 0.52 nM
Kinase AMPK inhibition [4]: ++ (Strong inhibition >75%)
Kinase CK2 inhibition [5]: − (Weak inhibition <50%)
Kinase PRAK inhibition [6]: ++ (Strong inhibition >75%)
Kinase SAPK-2b inhibition [7]: − (Weak inhibition <50%)
Kinase ROCK-II inhibition [8]: ++ (Strong inhibition >75%)
Kinase CK1 inhibition [9]: − (Weak inhibition <50%)

SMILES: CCNCc1cncc(-c2ccc3[nH]nc(-c4nc5c(NC(C)=O)cccc5[nH]4)c3c2)c1C [D]
Kinase SAPK-2A inhibition [1]: − (Weak inhibition <50%)
Kinase P70s6K1 inhibition [2]: − (Weak inhibition <50%)
Ki [3]: 2.4 nM
Kinase AMPK inhibition [4]: ++ (Strong inhibition >75%)
Kinase CK2 inhibition [5]: − (Weak inhibition <50%)
Kinase PRAK inhibition [6]: + (Moderate inhibition 50–75%)
Kinase SAPK-2b inhibition [7]: − (Weak inhibition <50%)
Kinase ROCK-II inhibition [8]: − (Weak inhibition <50%)
Kinase CK1 inhibition [9]: − (Weak inhibition <50%)
